Test results: patent US20240041823A1, “USE OF MYCOLACTONE (MLN) AND DERIVATIVES THEREOF FOR TREATMENT OF MICROBIAL INFECTIONS” (priority 2022, published 2024)

Tested on: SARS-CoV-2 variants of concern (VOC)
Type: cell-based
Details: plaque assay

Substance: mycolactone [MLN]
- IC50 fold lower than Remdesivir: 9-18 fold
